# Literature values, collected in patent publication US7390505B2, “Nanoparticulate topiramate formulations” (Elan Pharma International, Ltd., priority 2003, dated 2008).
# Key:
# [1] = not given; remark: listed apart in the source
# [2] = human, in vivo
smiles,measurement,setting,value
"CC1(C)O[C@@H]2[C@@H](CO[C@@]3(COS(N)(=O)=O)OC(C)(C)O[C@@H]23)O1 [Topiramate, 2,3:4,5-Di-O-isopropylidene-β-D-fructopyranose sulfamate]",patients who withdrew because of side effects,96 mg/d or 192 mg/d,19%
same,withdrawal due to depression,in vivo,3%
same,withdrawal due to difficulty with memory,in vivo,3%
same,withdrawal due to paraesthesia,in vivo,5 % of patients
same,solubility in organic solvents,"[1]; acetone, chloroform, dimethylsulfoxide, and ethanol",freely soluble
same,solubility in alkaline solutions,"[1]; solutions containing sodium hydroxide or sodium phosphate, pH of 9 to 10",most soluble
same,"incidence of ataxia, impaired concentration, confusion, dizziness, fatigue, paraesthesia, somnolence and abnormal thinking",[2],≥ 5 % of patients
